In one assay the target is T1, WEE1 (Homo sapiens, UniProt P30291+Q96SW2).
T1 construct: C-terminal ePL-tagged (DiscoverX, Fremont, CA) full-length WEE1 expression construct; expressed in transfected cells; host or cells: LentiX-HEK293T (Invitrogen), lentiviral transduction; co-expressing GSPT1-GN (G576N, lacking the first 158 amino acids)
Briefly: WEE1-ePL degradation assay (LentiX-WEE1-ePL-GSPT1-ND cells, InCELL Hunter luminescence, 4 h). The following applies: 293T-LentiX WEE1-ePL cells; for DC50: read-out: 293T-LentiX WEE1-ePL Degradation 4 hr (EC50). The class given is cell-based. An outline of the steps:
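HEK293T cells stably expressing C-terminal ePL-tagged full-length WEE1, 2500 cells/well, treated 4 h at 37° C with a 10-point 3-fold series from 1 or 10 uM. Remaining WEE1-ePL read by InCELL Hunter luminescence after 30 min. EC50 came from a four-parameter logistic fit, with Ymax set from DMSO control.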

Another assay has as its system MKN45 cells. Briefly: MKN45 cell proliferation assay (Cell-Titer-Glo, 120 h). It is filed as cell-based. The following applies: for EC50: Homo sapiens, MKN-45, 120 h, Cell-Titer-Glo, read-out: MKN45 Cell Prolif. 120 hr (EC50); for MKN45 Cell Prolif. 120 hr (Ymin-Obs): minimal percent of DMSO control observed in the concentrations tested. An outline of the steps: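 Growth inhibition was read as blank-corrected Cell-Titer-Glo luminescence expressed as percent DMSO control after 120 h at 37 C, 400 cells/well. Compounds tested in triplicate as 10-point half-log series from 1 or 10 uM, 0.1% DMSO; four-parameter fit gave EC50, and lowest observed percent control was reported as Ymin-obs.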

Setting [1] is: lower limit of the fit (0 = luciferase inhibitor, Ymax = DMSO control).
[2] abbreviates: lower limit of the fit (Ymin=0 luciferase inhibitor, Ymax DMSO control).

Read-outs that look alike come from different tables or passages of the source.

For `O=C1CC[C@H](N2Cc3cc(O[C@H]4CCN(Cc5ccc6nc(C7CCOCC7)ccc6c5)C4)ccc3C2=O)C(=O)N1` [(3S)-3-(5-{[(3S)-1-{[2-(oxan-4-yl)quinolin-6-yl]methyl}pyrrolidin-3-yl]oxy}-1-oxo-2,3-dihydro-1H-isoindol-2-yl)piperidine-2,6-dione], the “293T-LentiX WEE1-ePL Degradation 4 hr (Ymin)” value at WEE1 (setting [1]) is on record as 31.9. Also, the DC50 on WEE1 turned out to be 1.62 nM. Further, the EC50 with MKN45 cells (growth inhibition) was 3.12 nM. In addition, the “MKN45 Cell Prolif. 120 hr (Ymin-Obs)” value in the assay with MKN45 cells stood at 10.43.
As to `O=C1CC[C@H](N2Cc3cc(O[C@H]4CCN(Cc5ccc6nc(N7CCOCC7)ncc6c5Cl)C4)ccc3C2=O)C(=O)N1` [(3S)-3-(5-{[(3S)-1-{[5-chloro-2-(morpholin-4-yl)quinazolin-6-yl]methyl}pyrrolidin-3-yl]oxy}-1-oxo-2,3-dihydro-1H-isoindol-2-yl)piperidine-2,6-dione], the “293T-LentiX WEE1-ePL Degradation 4 hr (Ymin)” value on WEE1 (setting [2]) worked out at 28.46. For the same compound, at WEE1, the DC50 stood at 3.58 nM. In addition, in the assay on MKN45 cells, the EC50 turned out to be 18.3 nM and the “MKN45 Cell Prolif. 120 hr (Ymin-Obs)” value was determined as 17.49.
For the compound `O=C1CC[C@H](N2Cc3cc(O[C@H]4CCN(Cc5ccc6nc(C7CCOCC7)ccc6c5F)C4)ccc3C2=O)C(=O)N1` [(3S)-3-(5-{[(3S)-1-{[5-fluoro-2-(oxan-4-yl)quinolin-6-yl]methyl}pyrrolidin-3-yl]oxy}-1-oxo-2,3-dihydro-1H-isoindol-2-yl)piperidine-2,6-dione], the “293T-LentiX WEE1-ePL Degradation 4 hr (Ymin)” value on WEE1 (setting [1]) is 34.42. In addition, at WEE1, the DC50 turned out to be 0.306 nM. The EC50 in the assay with MKN45 cells (growth inhibition) turned out to be 2.1 nM. The “MKN45 Cell Prolif. 120 hr (Ymin-Obs)” value in the assay on MKN45 cells is reported as 12.14.
Taken in the same sequence, the figures for `O=C1CC[C@H](N2Cc3cc(O[C@H]4CCN(Cc5cc6ccc(C7CCOCC7)cc6cn5)C4)ccc3C2=O)C(=O)N1` [(3S)-3-(5-{[(3S)-1-{[7-(oxan-4-yl)isoquinolin-3-yl]methyl}pyrrolidin-3-yl]oxy}-1-oxo-2,3-dihydro-1H-isoindol-2-yl)piperidine-2,6-dione] were 33.42, 0.844 nM, 1.82 nM and 8.913.
As to `O=C1CC[C@H](N2Cc3cc(O[C@H]4CCN(Cc5cc6cnc(N7CCOCC7)nc6cc5F)C4)ccc3C2=O)C(=O)N1` [(3S)-3-(5-{[(3S)-1-{[7-fluoro-2-(morpholin-4-yl)quinazolin-6-yl]methyl}pyrrolidin-3-yl]oxy}-1-oxo-2,3-dihydro-1H-isoindol-2-yl)piperidine-2,6-dione], on WEE1 (setting [2]), the “293T-LentiX WEE1-ePL Degradation 4 hr (Ymin)” value is on record as 36.02. The DC50 on WEE1 came to 14.7 nM. In the assay with MKN45 cells, the EC50 was 15.2 nM and the “MKN45 Cell Prolif. 120 hr (Ymin-Obs)” value turned out to be 10.84.
The corresponding values for `CC(C)(O)c1cc(CN2CC[C@H](Oc3ccc4c(c3)CN([C@H]3CCC(=O)NC3=O)C4=O)C2)cc2ccc(C3CCOCC3)nc12` [(3S)-3-(5-{[(3S)-1-{[8-(2-hydroxypropan-2-yl)-2-(oxan-4-yl)quinolin-6-yl]methyl}pyrrolidin-3-yl]oxy}-1-oxo-2,3-dihydro-1H-isoindol-2-yl)piperidine-2,6-dione] are 53.75, 6.72 nM, 166 nM and 75.97.
Taken in the same sequence, the figures for `O=C1CC[C@H](N2Cc3cc(O[C@H]4CCN(Cc5cc(N6CCC6)c6nc(C7CCOCC7)ccc6c5)C4)ccc3C2=O)C(=O)N1` [(3S)-3-(5-{[(3S)-1-{[8-(azetidin-1-yl)-2-(oxan-4-yl)quinolin-6-yl]methyl}pyrrolidin-3-yl]oxy}-1-oxo-2,3-dihydro-1H-isoindol-2-yl)piperidine-2,6-dione] were 33.36, 26 nM, 10.8 nM and 3.155.
`O=C1CC[C@H](N2Cc3cc(O[C@H]4CCN(Cc5cc(Cl)c6nc(N7CCOCC7)ncc6c5)C4)ccc3C2=O)C(=O)N1` [(3S)-3-(5-{[(3S)-1-{[8-chloro-2-(morpholin-4-yl)quinazolin-6-yl]methyl}pyrrolidin-3-yl]oxy}-1-oxo-2,3-dihydro-1H-isoindol-2-yl)piperidine-2,6-dione]: the “293T-LentiX WEE1-ePL Degradation 4 hr (Ymin)” value on WEE1 (setting [2]) came out at 38.34. For the same compound, at WEE1, the DC50 worked out at 2.88 nM. In the assay with MKN45 cells, the EC50 was determined as 10.8 nM and the “MKN45 Cell Prolif. 120 hr (Ymin-Obs)” value came out at 12.54.
The corresponding values for `O=C1CC[C@H](N2Cc3cc(O[C@H]4CCN(Cc5cc(Cl)c6nc(C7CCOCC7)ccc6c5)C4)ccc3C2=O)C(=O)N1` [(3S)-3-(5-{[(3S)-1-{[8-chloro-2-(oxan-4-yl)quinolin-6-yl]methyl}pyrrolidin-3-yl]oxy}-1-oxo-2,3-dihydro-1H-isoindol-2-yl)piperidine-2,6-dione] are 29.99, 1.1 nM, 4.44 nM and 10.22.
For `O=C1CC[C@H](N2Cc3cc(O[C@H]4CCN(Cc5cc(C6CC6)c6nc(N7CCOCC7)ncc6c5)C4)ccc3C2=O)C(=O)N1` [(3S)-3-(5-{[(3S)-1-{[8-cyclopropyl-2-(morpholin-4-yl)quinazolin-6-yl]methyl}pyrrolidin-3-yl]oxy}-1-oxo-2,3-dihydro-1H-isoindol-2-yl)piperidine-2,6-dione], the “293T-LentiX WEE1-ePL Degradation 4 hr (Ymin)” value on WEE1 (setting [2]) is 42.1. For the same compound, the DC50 on WEE1 is 2.5 nM. In the assay on MKN45 cells, the concentration giving a half-maximal response (EC50) was 2.28 nM and the “MKN45 Cell Prolif. 120 hr (Ymin-Obs)” value is 2.136.
Take `O=C1CC[C@H](N2Cc3cc(O[C@H]4CCN(Cc5cc(C6CC6)c6nc(C7CCOCC7)ccc6c5)C4)ccc3C2=O)C(=O)N1` [(3S)-3-(5-{[(3S)-1-{[8-cyclopropyl-2-(oxan-4-yl)quinolin-6-yl]methyl}pyrrolidin-3-yl]oxy}-1-oxo-2,3-dihydro-1H-isoindol-2-yl)piperidine-2,6-dione]: on WEE1 (setting [2]), the “293T-LentiX WEE1-ePL Degradation 4 hr (Ymin)” value was 54.54. The DC50 at WEE1 amounted to 2.58 nM. Also, in the assay with MKN45 cells, the EC50 came to 0.16 nM and the “MKN45 Cell Prolif. 120 hr (Ymin-Obs)” value was found to be 3.047.
Taken in the same sequence, the figures for `O=C1CC[C@H](N2Cc3cc(O[C@H]4CCN(Cc5cc(F)c6nc(N7CCOCC7)ncc6c5)C4)ccc3C2=O)C(=O)N1` [(3S)-3-(5-{[(3S)-1-{[8-fluoro-2-(morpholin-4-yl)quinazolin-6-yl]methyl}pyrrolidin-3-yl]oxy}-1-oxo-2,3-dihydro-1H-isoindol-2-yl)piperidine-2,6-dione] were 32.63, 3.13 nM, 7.59 nM and 10.25.
Taken in the same sequence, the figures for `O=C1CC[C@H](N2Cc3cc(O[C@H]4CCN(Cc5cc(F)c6nc(C7CCOCC7)ncc6c5)C4)ccc3C2=O)C(=O)N1` [(3S)-3-(5-{[(3S)-1-{[8-fluoro-2-(oxan-4-yl)quinazolin-6-yl]methyl}pyrrolidin-3-yl]oxy}-1-oxo-2,3-dihydro-1H-isoindol-2-yl)piperidine-2,6-dione] were 33.6, 27.6 nM, 13.4 nM and 9.241.
As to `O=C1CC[C@H](N2Cc3cc(O[C@H]4CCN(Cc5cc(F)c6nc(C7CCOCC7)ccc6c5)C4)ccc3C2=O)C(=O)N1` [(3S)-3-(5-{[(3S)-1-{[8-fluoro-2-(oxan-4-yl)quinolin-6-yl]methyl}pyrrolidin-3-yl]oxy}-1-oxo-2,3-dihydro-1H-isoindol-2-yl)piperidine-2,6-dione], the “293T-LentiX WEE1-ePL Degradation 4 hr (Ymin)” value on WEE1 (setting [1]) was found to be 29.02. At WEE1, the DC50 was 1.45 nM. For the same compound, in the assay with MKN45 cells (growth inhibition), the EC50 was 2.29 nM. In addition, the “MKN45 Cell Prolif. 120 hr (Ymin-Obs)” value in the assay on MKN45 cells is 8.43.
Turning to `C[C@@H]1CN(Cc2ccc3nc([C@@H]4CCOC(C)(C)C4)ccc3c2)C[C@H]1Oc1ccc2c(c1)CN([C@H]1CCC(=O)NC1=O)C2=O` [(3S)-3-(5-{[(3S,4R)-1-({2-[(4R)-2,2-dimethyloxan-4-yl]quinolin-6-yl}methyl)-4-methylpyrrolidin-3-yl]oxy}-1-oxo-2,3-dihydro-1H-isoindol-2-yl)piperidine-2,6-dione], the “293T-LentiX WEE1-ePL Degradation 4 hr (Ymin)” value at WEE1 (setting [2]) is 24.64. Besides, the DC50 on WEE1 came to 1.15 nM. In the assay with MKN45 cells, the 50% effective concentration (EC50) was 0.424 nM and the “MKN45 Cell Prolif. 120 hr (Ymin-Obs)” value turned out to be 8.113.
The corresponding values for `C[C@@H]1CN(Cc2ccc3nc([C@H]4CCOC(C)(C)C4)ccc3c2)C[C@H]1Oc1ccc2c(c1)CN([C@H]1CCC(=O)NC1=O)C2=O` [(3S)-3-(5-{[(3S,4R)-1-({2-[(4S)-2,2-dimethyloxan-4-yl]quinolin-6-yl}methyl)-4-methylpyrrolidin-3-yl]oxy}-1-oxo-2,3-dihydro-1H-isoindol-2-yl)piperidine-2,6-dione] are 24.63, 3.51 nM, 1.44 nM and 9.434.

Broadly, the EC50 is the concentration that produces a half-maximal response.
